Data as given in patent US7812035B2, “4-substituted piperidines, and methods of use thereof” (Sepracor Inc., priority 2001, dated 2010).
Where two headings read alike, the source gives them in different places.

Key:
Type in all cases: cell-based
[1] = target: norepinephrine transporter (Homo sapiens, UniProt P23975); test: NE uptake inhibition (monoamine transporter antagonism, methods of Galli et al); conditions: read-out: NE uptake (% inhibition @1 μM)
[2] = test system: dopamine transporter; test: DA uptake inhibition (monoamine transporter antagonism, methods of Gu et al); conditions: 1 μM compound
[3] = target: serotonin transporter (UniProt P31645); test: 5-HT uptake inhibition (monoamine transporter antagonism, methods of Gu et al); conditions: 1 μM compound

norepinephrine transporter, sequence (P23975 whole entry): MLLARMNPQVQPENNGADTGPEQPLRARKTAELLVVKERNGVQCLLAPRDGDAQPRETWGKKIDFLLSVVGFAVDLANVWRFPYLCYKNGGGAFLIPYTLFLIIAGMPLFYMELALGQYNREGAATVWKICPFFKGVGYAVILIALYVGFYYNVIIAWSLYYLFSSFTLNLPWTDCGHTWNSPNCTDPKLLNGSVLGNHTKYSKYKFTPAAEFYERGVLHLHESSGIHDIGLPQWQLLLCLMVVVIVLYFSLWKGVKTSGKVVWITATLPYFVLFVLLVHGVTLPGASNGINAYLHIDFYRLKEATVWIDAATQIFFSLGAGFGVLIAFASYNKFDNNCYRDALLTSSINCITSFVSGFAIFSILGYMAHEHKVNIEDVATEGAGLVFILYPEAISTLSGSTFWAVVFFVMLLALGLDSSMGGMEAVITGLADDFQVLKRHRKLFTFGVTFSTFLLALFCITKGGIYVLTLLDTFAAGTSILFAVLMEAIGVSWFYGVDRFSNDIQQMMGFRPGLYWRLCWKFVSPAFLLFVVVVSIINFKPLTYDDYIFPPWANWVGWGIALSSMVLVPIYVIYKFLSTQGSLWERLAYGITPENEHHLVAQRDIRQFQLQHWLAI

inhibition at 1 µM ([1]; 1 μM compound) [%] | SMILES | inhibition at 1 µM [1] [%] | DA uptake (% inhibition @1 μM) [2] [%] | 5-HT uptake (% inhibition @1 μM) [3] [%]
– | OC1CCN(CC2(c3ccc(Cl)cc3)CCC2)CC1 [Compound 2, 1-[1-(4-Chloro-phenyl)-cyclobutylmethyl]-piperidin-4-ol] | 65 | 88 | 36
85 | FC(F)(F)c1cc(COC2CCN(CC3(c4ccc(Cl)cc4)CCC3)CC2)cc(C(F)(F)F)c1 [Compound 5] | – | 61 | 14
– | FC(F)(F)c1ccc(COC2CCN(CC3(c4ccc(Cl)cc4)CCC3)CC2)cc1 [Compound 6, [1-(4-chloro-phenyl)-cyclobutylmethyl]-4-(4-trifluoromethyl-benzyloxy)-piperidine] | 78 | 85 | 9
– | FC(F)(F)c1ccc(OC2CCN(CC3(c4ccc(Cl)cc4)CCC3)CC2)cc1 [Compound 8, 1-[1-(4-chloro-phenyl)-cyclobutylmethyl]-4-(4-trifluoromethal-phenoxy)-piperidine] | 38 | 25 | 56
– | OCC1CCN(CC2(c3ccc(Cl)cc3)CCC2)CC1 [Compound 10, {1-[1-(4-chloro-phenyl)-cyclobuylmethyl]-piperidin-4-yl}-methanol] | 62 | 70 | 21
97 | FC(F)(F)c1ccc(COCC2CCN(CC3(c4ccc(Cl)cc4)CCC3)CC2)cc1 [Compound 11] | – | 97 | 87
– | FC(F)(F)c1ccc(OCC2CCN(CC3(c4ccc(Cl)cc4)CCC3)CC2)cc1 [Compound 13, 1-[1-(4-Chloro-Phenyl)-Cyclobutylmethyl]-4-(4-Trifluoromethyl-Phenoxymethyl)-Piperidine] | 97 | 94 | 83
